Source: patent US20240091210A1, “USE OF 5-[[4-[2-[5-ACETYLPYRIDIN-2-YL]ETHOXY]BENZYL]-1,3-THIAZOLIDINE-2,4-DIONE AND ITS SALTS” (Minoryx Therapeutics S.L., priority 2018, published 2024)
Like-named read-outs stand apart in the source and are kept apart here.

What was measured:
[1] = system: MCD diet NASH mouse model; experiment: Methionine Choline Deficient (MCD) diet NASH mouse model; format: in vivo, C57BL6/J male mice; details: 62.5 mg/kg BID oral, 7 weeks
Experimental: The preventive effects of MIN-102 was evaluated in a 7-week Methionine Choline Deficient (MCD) diet NASH mouse model (Verdelho Machado et al.). After the acclimation period, C57BL6/J male mice (n=20) were weighed and randomized into 2 homogenous treatment groups based on body weight (n=10/group), put on a MCD diet, and treated BID orally with vehicle or MIN-102 for 7 weeks. MIN-102 was dosed 62.5 mg/kg BID orally by gavage. After the acclimation period, C57BL6/J male mice (n=20) were weighed and randomized into 2 homogenous treatment groups based on body weight (n=10/group), put on a MCD diet, and treated BID orally with a vehicle or MIN-102 (125 mg/Kg/day) for 7 weeks. Body weight was measured 3 times/week until the end of the experimental phase. At 7 weeks of diet/treatment, mice were weighed and treated at ˜08:00 am in the morning, then bled (maximal volume/EDTA) at ˜1:00 pm. Plasma was then immediately isolated and stored at −80° C. prior to assay plasma ALT and AST. The plasma volume left over was stored at −80° C. for eventual additional analysis. After blood collection, the mice were sacrificed by cervical dislocation under isoflurane anesthesia and exsanguinated with sterile saline. A NAFLD scoring system (NAS) adapted from Kleiner et al. (Hepatology. 41(6):1313-1321 (2005)) using the criteria described in the Table 1 below: Several other histopathological observations described in clinical human cases and originally reported in the NAS scoring system published by Kleiner et al. were not observed in this animal study, such as lipogranuloma, acidophil bodies, megamitochondria, and pigmented macrophages. Therefore, it was elected not to include them in the scoring system described above. An individual mouse NAS total score was calculated for each animal by summing up the score for (1) hepatocellular steatosis, (2) liver inflammation, (3) lobular fibrosis, and (4) hepatocyte ballooning. Histology analysis was performed (oil red O, H&E and Sirius Red staining) for NAFLD scoring system (NAS) for liver steatosis, inflammation, fibrosis and hepatocyte ballooning.

[2] = system: adiponectin; experiment: Plasma adiponectin levels in rats (ELISA), measure of PPAR gamma engagement; format: in vivo, Sprague Dawley rats; details: 54 mg/Kg/day for 7 days, plasma 1 h after last dose, vs vehicle
Experimental: Evaluation of effect of MIN-102 on adiponectin was performed in Sprague Dawley wild type rats as a measure of PPAR gamma engagement. The rats were treated for 7 days with increasing doses of MIN-102 at 54 mg/Kg/day. Plasma were obtained at 1 h after the last MIN-102 administration. Adiponectin levels were measured by ELISA. Results were represented as mean+standard error of the mean of n=8. Data were analyzed by Kruskal-Wallis followed by the Dunn post-hoc test versus the vehicle group (**** p<0.0001).

[3] = system: MDA MB231 KO cells; experiment: Seahorse oxygen consumption rate (OCR), MDA MB231 KO cells (MPC2 deleted); format: cell-based; details: MPC activity genetically deleted
Experimental: (§1) To determine whether MIN-102 has any effect on pyruvate-mediated mitochondrial respiration, the extracellular flux analyzer Seahorse was used as described in Compan et al.. Seahorse experiments were performed in the following cell lines: HeLa (Cervix cancer cells), A549 (lung cancer cells), wild type MDA MB 231, and MDA MB 231 in which MPC2 has been deleted, leading to inactivation of the MPC (MDA MB231 KO). MDA MB231 cells are epithelial breast cancer cells. Cells were incubated with increasing concentrations of the compounds for one hour at 37° C. before oxygen consumption rate (OCR) measurements. The Seahorse analyzer allowed to measure basal and maximal respiration measured upon depolarization with 1 μM CCCP. […] The KO cells have been deleted of the MPC2 gene and therefore they display no MPC activity. The top panel show a representative experiment of either wild type (WT) or KO cell lines. […] OCR values are expressed as ratios of OCR in the presence of different concentrations of the tested compound over the OCR in PBS alone.

[4] = Multiple ascending dose (MAD) study in human subjects; format: in vivo; details: for Cmax: in vivo, steady state day 8, human, read-out: mean Cmax ss
[5] = Minimal effective exposure in mice (dose calculation); format: in vivo; details: said to correspond to 50 mg/kg
Experimental: It can be assumed that dose-exposure is linear. The minimal effective exposure of 5-[[4-[2-[5-(1-hydroxyethyl)pyridin-2-yl]ethoxy]phenyl]methyl]-1,3-thiazolidine-2,4-dione hydrochloride is 130 μg·h/mL in mice which corresponds to administration of 50 mg/kg of 5-[[4-[2-[5-(1-hydroxyethyl)pyridin-2-yl]ethoxy]phenyl]methyl]-1,3-thiazolidine-2,4-dione hydrochloride to mice. It follows that the dose to achieve this exposure in mice is […].

[6] = system: wild type MDA MB231 cells; experiment: Seahorse oxygen consumption rate (OCR), wild type MDA MB231 cells; format: cell-based
Experimental: as §1

change in clearance with time ([4]; 135 mg and 270 mg, human): no change in clearance with time
Cmax ([4]; 135 mg): 9490 ng/mL
Cmax ([4]; 270 mg): 17200 ng/mL
Cmin ss associated with the target AUCss ([4]; target AUCss 200 μg·h/mL, line of best fit of day 8 Cmin ss vs AUCss): 5716 ng/mL
SMILES: CC(O)c1ccc(CCOc2ccc(CC3SC(=O)NC3=O)cc2)nc1.Cl (racemic) [MIN-102, 5-[[4-[2-[5-(1-hydroxyethyl)pyridin-2-yl]ethoxy]phenyl]methyl]-1,3-thiazolidine-2,4-dione hydrochloride]
hepatic cholesterol levels [1]: did not show a change
liver inflammation [1]: total disappearance
body weight loss ([1]; day 14 to day 50, vs vehicle): less severe decline in body weight loss
oil red o staining % ([1]; vs vehicle, p<0.001): extremely low
reduction in hepatic triglycerides levels ([1]; vs vehicle, p<0.001): 92%
steatosis score ([1]; vs vehicle, p<0.001): blunted
reduction of plasma ALT level ([1]; vs vehicle, p<0.01): 78%
reduction of plasma AST level ([1]; vs vehicle, p<0.01): 55%
mean NAS group score ([1]; vehicle 3.40±0.3, p<0.001): 0.44±01
plasma adiponectin levels [2]: significantly increased
effect on oxygen consumption [3]: does not inhibit oxygen consumption
minimal effective exposure [5]: 130 µg·h/mL
effect on oxygen consumption [6]: inhibits oxygen consumption in a MPC dependent manner
